Reference: publication PMC5460604 (Chemical Science, 2016)
Like-named read-outs stand apart in the source and are kept apart here. Each block holds one compound with its values, some of them ahead of it.

Legend:
ER-BC (Bcoa0725) = settings: NADH, anaerobic
ER-MT = molecular target: T1, ER-MT (Neomoorella thermoacetica, UniProt O52935); experiment: whole-cell biotransformation, LC-MS; assay type: cell-based; settings: 0.7 mM substrate; E. coli expressing ER
T1 sequence (O52935 1-667): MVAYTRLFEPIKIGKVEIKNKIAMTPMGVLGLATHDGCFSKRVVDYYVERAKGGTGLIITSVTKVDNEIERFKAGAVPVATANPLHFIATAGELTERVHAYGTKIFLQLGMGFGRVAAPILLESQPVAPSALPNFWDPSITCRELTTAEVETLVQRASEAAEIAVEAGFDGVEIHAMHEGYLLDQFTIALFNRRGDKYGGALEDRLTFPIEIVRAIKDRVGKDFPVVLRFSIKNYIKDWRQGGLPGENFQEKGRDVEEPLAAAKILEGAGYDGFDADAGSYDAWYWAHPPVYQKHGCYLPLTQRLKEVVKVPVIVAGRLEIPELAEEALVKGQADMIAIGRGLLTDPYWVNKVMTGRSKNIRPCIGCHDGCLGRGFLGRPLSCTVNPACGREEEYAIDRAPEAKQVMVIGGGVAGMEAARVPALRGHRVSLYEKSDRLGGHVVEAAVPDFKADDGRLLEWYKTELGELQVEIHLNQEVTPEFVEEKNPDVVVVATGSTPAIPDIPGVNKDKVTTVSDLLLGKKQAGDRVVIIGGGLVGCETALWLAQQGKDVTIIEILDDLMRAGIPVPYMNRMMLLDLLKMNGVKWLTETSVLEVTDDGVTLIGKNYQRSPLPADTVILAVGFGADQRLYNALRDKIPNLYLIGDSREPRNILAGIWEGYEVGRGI

Km (ER-BC (Bcoa0725); substrate inhibition): 0.68 mM
SMILES: O=C(O)/C=C/c1ccccc1 [compound 4, trans-cinnamic acid]

Km (ER-BC (Bcoa0725); 14% isopropanol, sigmoidal kinetics): 18.9 mM
SMILES: O=C(O)C=CCCC(=O)O (mixture of isomers) [compound 5, 2-hexenedioic acid]

SMILES: O=C(O)/C=C/C=C/C(=O)O [trans,trans-muconic acid]
whole-cell biotransformation, LC-MS (ER-MT): the ER-BC, ER-CA and ER-MT strains hydrogenated both isomers to adipic acid
